Assay results from paper PMC5421877, “SOCS3 inhibits the pathological effects of IL-22 in non-melanoma skin tumor-derived keratinocytes” (Oncotarget, 2017).

How the values were obtained:
CAL33 cells = assay: Scratch assay (migration), CAL33; assay type: cell-based; conditions: 24 h
Procedure: (§1) Figure 6 IL-22-induced proliferation and migration of healthy and transformed keratinocytes is counteracted by KIR-ESS peptide (A) Healthy KC, CAL27 and CAL33 cultures were plated in 96-well plates in quadruplicate for each condition. After 1 day, cells were pre-treated or not with Ctrl1 or KIR-ESS peptides (40 μM), or S31-201 ([…]) and PD98059 ([…]) chemical inhibitors, and, then, stimulated or not with 50 ng/ml of IL-22. Data relative to 48-h treatment are shown and expressed as the values of fluorescence intensity obtained from untreated and IL-22-treated ± SD. Three independent experiments were performed. *p < 0.01. (B) Scratch assays were carried out on healthy or SCC-lines, pre-incubated with mitomycin C (5 mg/ml), pre-treated with Ctrl1 or KIR-ESS peptides (40 μM), or S31-201 ([…]) or PD98059 ([…]) chemical inhibitors, and, then, stimulated or not with IL-22 for 24 h. Microscopic images were taken immediately after and 24 h after wound induction on confluent cell layers. Initial scratches (0 h) are dashed blank. (C) Cell-free area was measured and indicated as residual wound. Data are reported as healed wound (gray area of bars) vs residual wound (white area of bars) which a value of 100% was given. *p < 0.01.
(§2) Cultured keratinocytes and SCC cell lines were grown at 100% confluence on type IV collagen (20 μg/ml), and then incubated with mitomycin C (5 mg/ml) (Sigma-Aldrich) for 1 h. Cell monolayers were scratched with the tip of a p-200 pipette to create uniform cell-free zones, and, then, pre-treated with appropriate concentrations of SOCS3 mimetic or control peptides, or with 10 μM STAT3 (S3I-201, Santa Cruz) and 20 μM Erk1/2 (PD98059, Calbiochem) inhibitors for 1 h, before treating by 50 ng/ml of IL-22. Microscopy pictures were taken with a digital camera at different time points following IL-22 treatment. The residual gap between migrating keratinocytes was measured with a computer-assisted image analysis system (Axiovision; Zeiss, Oberkochen, Germany), and expressed as percentage of the initial scratched area.

healthy keratinocytes [1] = assay: CyQUANT proliferation assay, healthy keratinocytes; assay type: cell-based, human; conditions: healthy KC; PD98059 20 μM or S3I-201 10 μM, 48 h
Procedure: (§3) Figure 6 IL-22-induced proliferation and migration of healthy and transformed keratinocytes is counteracted by KIR-ESS peptide (A) Healthy KC, CAL27 and CAL33 cultures were plated in 96-well plates in quadruplicate for each condition. After 1 day, cells were pre-treated or not with Ctrl1 or KIR-ESS peptides (40 μM), or S31-201 ([…]) and PD98059 ([…]) chemical inhibitors, and, then, stimulated or not with 50 ng/ml of IL-22. Data relative to 48-h treatment are shown and expressed as the values of fluorescence intensity obtained from untreated and IL-22-treated ± SD. Three independent experiments were performed. *p < 0.01. […] (C) Cell-free area was measured and indicated as residual wound. […]
(§4) SOCS1- and SOCS3 stably transfected keratinocytes or cultured keratinocytes previously transfected with SOCS3 or control siRNA were seeded in 96-well plates (1.5–2.0 × 10^4 cells/well), and, the day after, starved in medium without serum. At 60% confluence, cells were treated with 75 ng/ml of IL-22 for 3 days, stained with 0.5% crystal violet (Bio-Rad, Hercules, CA, USA), and then analyzed in an ELISA reader (model 3550 UV ELISA reader; Bio-Rad). […] After 1-h pre-incubation, cells were treated with IL-22 or left unstimulated, cultured for other 24, 48 and 72 h, and the number of viable cells determined by CyQUANT Cell Proliferation Assay, accordingly to manufacture's protocol. […]

healthy keratinocytes [2] = assay: Scratch assay (migration), healthy keratinocytes; assay type: cell-based, human; conditions: without IL-22, 40 μM peptide or PD98059 20 μM, 24 h
Procedure: as §3, with “0.01. (B) Scratch assays were carried out on healthy or SCC-lines, pre-incubated with mitomycin C (5 mg/ml), pre-treated with Ctrl1 or KIR-ESS peptides (40 μM), or S31-201 ([…]) or PD98059 ([…]) chemical inhibitors, and, then, stimulated or not with IL-22 for 24 h.” for “0.01.”
Cultured keratinocytes and SCC cell lines were grown at 100% confluence on type IV collagen (20 μg/ml), and then incubated with mitomycin C (5 mg/ml) (Sigma-Aldrich) for 1 h. […] The residual gap between migrating keratinocytes was measured with a computer-assisted image analysis system (Axiovision; Zeiss, Oberkochen, Germany), and expressed as percentage of the initial scratched area.

[3] = test system: SCC-cell lines (CAL27 and CAL33); assay: CyQUANT proliferation assay, SCC-cell lines; assay type: cell-based; conditions: PD98059 20 μM or S3I-201 10 μM, 48 h
Procedure: as §3, §4

CAL27 cells = assay: Scratch assay (migration), CAL27; assay type: cell-based; conditions: CAL27; 40 μM peptide, PD98059 20 μM or S3I-201 10 μM; IL-22 50 ng/ml, 24 h
Procedure: as §1, §2

COc1cccc(-c2cc(=O)c3ccccc3o2)c1N [PD98059]
wound closure / migration, resting cells (CAL33 cells; CAL33, without IL-22, 40 μM peptide or PD98059 20 μM): efficacious in inhibiting migration of CAL27 cells and healthy or CAL33 keratinocytes, respectively | wound closure, IL-22-treated (CAL33 cells; CAL33, 40 μM peptide, PD98059 20 μM or S3I-201 10 μM, IL-22 50 ng/ml): effect similar to those obtained with the chemical Erk1/2 and STAT3 inhibitors | proliferation (effect relative to KIR-ESS) (healthy keratinocytes [1]): KIR-ESS effect was similar to that observed in all healthy and transformed keratinocyte cultures | wound closure / migration, resting cells (healthy keratinocytes [2]): efficacious in inhibiting migration of CAL27 cells and healthy or CAL33 keratinocytes, respectively | proliferation (effect relative to KIR-ESS) [3]: KIR-ESS effect was similar to that observed in all healthy and transformed keratinocyte cultures | wound closure, IL-22-treated (CAL27 cells): effect similar to those obtained with the chemical Erk1/2 and STAT3 inhibitors
